# In patent publication US8044208B2 (Sanofi-Aventis, priority 2005, dated 2011):
# Target: T1, TAFIa (Homo sapiens, UniProt Q96IY4)
# T1 construct: purchased American Diagnostica 874TAFIA
# T1 sequence (Q96IY4 115-423): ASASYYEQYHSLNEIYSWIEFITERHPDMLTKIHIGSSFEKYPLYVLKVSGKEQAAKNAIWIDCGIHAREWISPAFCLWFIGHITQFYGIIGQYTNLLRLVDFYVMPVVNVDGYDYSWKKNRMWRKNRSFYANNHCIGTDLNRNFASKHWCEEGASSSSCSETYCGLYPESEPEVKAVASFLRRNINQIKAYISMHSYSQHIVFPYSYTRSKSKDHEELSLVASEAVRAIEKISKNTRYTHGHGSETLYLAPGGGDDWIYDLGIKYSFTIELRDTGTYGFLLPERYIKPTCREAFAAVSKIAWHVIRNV
# Assay: TAFIa enzyme assay (Actichrome plasma TAFI activity kit)
# Assay type: biochemical
# Conditions: 15 min preincubation at room temperature, read at 420 nm, duplicate determination
# Description: The prepared substances were tested for TAFIa inhibition using the Actichrome plasma TAFI activity kit from American Diagnostica (Pr. No. 874). This entailed adding 29 μl of assay buffer (20 mM Hepes, 150 mM NaCl, pH 7.4) and 10 μl of TAFIa (American Diagnostica Pr. No. 874TAFIA; […]) to 1 μl of 5 mM DMSO solution of the substance and incubating in a 96 half-well microtiter plate at room temperature for 15 minutes. The enzymic reaction was started by adding 10 μl of TAFIa developer (prediluted 1:2 with water). The time course of the reaction was followed at 420 nm in a microtiter plate reader (SpectraMax plus 384; Molecular Devices) for 15 minutes. The IC50 values were calculated from the averaged values (duplicate determination) of serial dilutions of the substance with the aid of the Software Grafit 4 (Erithacus Software, UK).
row,Compound,IC50
1,COc1ccc(-c2nc(Cn3cnc(C(Cc4ccc(N)nc4)C(=O)O)c3)no2)cc1 (centres unmarked) [Example 15],223 nM
2,"COc1ccc(-c2cc(Cn3cnc(C(Cc4ccc(N)nc4)C(=O)O)c3)no2)cc1 (centres unmarked) [Example 5, 3-(6-Aminopyridin-3-yl)-2-{1-[5-(4-methoxyphenyl)isoxazol-3-ylmethyl]-1H-imidazol-4-yl}propionic acid]",104 nM
3,"Nc1ccc(CC(C(=O)O)c2cn(Cc3nnc(-c4ccc(Cl)cc4)s3)cn2)cn1 (centres unmarked) [Example 8, 3-(6-Aminopyridin-3-yl)-2-{1-[5-(4-chlorophenyl)-[1,3,4]thiadiazol-2-ylmethyl]-1H-imidazol-4-yl}propionic acid]",41 nM
4,"CCC(C)c1ccc(-c2cc(Cn3cnc(C(Cc4ccc(N)nc4)C(=O)O)c3)no2)cc1 (centres unmarked) [Example 46, 3-(6-Aminopyridin-3-yl)-2-{1-[5-(4-sec-butylphenyl)isoxazol-3-ylmethyl]-1H-imidazol-4-yl}propionic acid]",3 nM
5,"Cc1cc(CC(C(=O)O)c2cn(Cc3nnc(C4CC4)s3)cn2)cnc1N (centres unmarked) [Example 61, 3-(6-Amino-5-methylpyridin-3-yl)-2-[1-(5-cyclopropyl-[1,3,4]thiadiazol-2-ylmethyl)-1H-imidazol-4-yl]propionic acid]",26 nM
6,"Cc1nc(-c2cc(Cn3cnc(C(Cc4ccc(N)nc4)C(=O)O)c3)no2)cs1 (centres unmarked) [Example 18, 3-(6-Aminopyridin-3-yl)-2-{1-[5-(2-methylthiazol-4-yl)isoxazol-3-ylmethyl]-1H-imidazol-4-yl}propionic acid]",326 nM
7,"CC(C)(C)c1ccc(-c2noc(Cn3cnc(C(Cc4ccc(N)nc4)C(=O)O)c3)n2)cc1 (centres unmarked) [Example 17, 3-(6-Aminopyridin-3-yl)-2-{1-[3-(4′-tert-butylphenyl)-[1,2,4]oxadiazol-5-ylmethyl]-1H-imidazol-4-yl}propionic acid]",745 nM
8,"Nc1ccc(CC(C(=O)O)c2cn(Cc3cnc(-c4ccc(Cl)s4)s3)cn2)cn1 (centres unmarked) [Example 3, 3-(6-Aminopyridin-3-yl)-2-{1-[2-(5-chlorothiophen-2-yl)thiazol-5-ylmethyl]-1H-imidazol-4-yl}propionic acid]",326 nM
9,"Nc1ccc(CC(C(=O)O)c2cn(Cc3nnc(C4CC4)s3)cn2)cn1 (centres unmarked) [Example 12, 3-(6-Aminopyridin-3-yl)-2-[1-(5-cyclopropyl-[1,3,4]thiadiazol-2-ylmethyl)-1H-imidazol-4-yl]propionic acid]",30 nM
10,"Nc1ccc(CC(C(=O)O)c2cn(Cc3noc(-c4ccc(C(F)(F)F)cc4)n3)cn2)cn1 (centres unmarked) [Example 10, 3-(6-Aminopyridin-3-yl)-2-{1-[5-(4-trifluoromethylphenyl)-[1,2,4]oxadiazol-3-ylmethyl]-1H-imidazol-4-yl}propionic acid]",258 nM
11,"Nc1ccc(CC(C(=O)O)c2cn(Cc3cc(-c4ccc(Cl)s4)on3)cn2)cn1 (centres unmarked) [Example 1, 3-(6-Aminopyridin-3-yl)-2-{1-[5-(5-chlorothiophen-2-yl)isoxazol-3-ylmethyl]-1H-imidazol-4-yl}propionic acid]",41 nM
12,"COc1ccc(-c2nnc(Cn3cnc(C(Cc4ccc(N)nc4)C(=O)O)c3)s2)cc1 (centres unmarked) [Example 22, 3-(6-Aminopyridin-3-yl)-2-{1-[5-(4-methoxyphenyl)-[1,3,4]thiadiazol-2-ylmethyl]-1H-imidazol-4-yl}propionic acid]",78 nM
13,"Nc1ccc(C[C@H](C(=O)O)c2cn(Cc3cc(-c4ccc(Cl)s4)on3)cn2)cn1 [Example 58, (S)-3-(6-Aminopyridin-3-yl)-2-{1-[5-(5-chlorothiophen-2-yl)isoxazol-3-ylmethyl]-1H-imidazol-4-yl}propionic acid]",4 nM
14,"CC(C)(C)c1nnc(Cn2cnc(C(Cc3ccc(N)nc3)C(=O)O)c2)s1 (centres unmarked) [Example 9, 3-(6-Aminopyridin-3-yl)-2-[1-(5-tert-butyl-[1,3,4]thiadiazol-2-ylmethyl)-1H-imidazol-4-yl]propionic acid]",169 nM
